Where a SMILES comes first, the peptide text is derived from it. The star is where a group is joined. Cbz = O=C(OCc1ccccc1)*; CH2F = FC*
How the values were obtained:
HeLa cells = assay: Effect of Z-VD-fmk on TNF-α-induced cell death in HeLa cells (calcein AM, Example 25); type: cell-based
Description: Tumor necrosis factor alpha (TNF-α) can trigger apoptosis in a number of cell types by initiating the caspase cascade and its apoptosis inducing activity can be inhibited by peptide-based caspase inhibitors. However, high concentrations of the inhibitors (50 μM or greater) is required to have good anti-apoptotic effect. HeLa cells, a cell line commonly employed in TNF-α cell death studies, was used here to determine the anti-apoptotic potency of Z-VD-fmk.
HeLa cells were seeded in 48-well multidishes at a density of 50,000 cells per well 24 hours before treatment. They were then pre-incubated with varying concentrations of Z-VD-fmk for 2 hours and challenged with TNF-α (25 ng/mL) and cycloheximide (CHX; 30 μg/mL). The cultures were incubated for an additional 24 hours and dead cells were removed by two washes with PBS. The density of surviving cells was then measured by incubating each culture for 45 minutes with calcein AM, a profluorescent dye which is taken up by living cells and converted to a fluorescent product. The resulting data were expressed as % control values (control values were cells incubated with cycloheximide but without TNF-α).
Z-VD-fmk provided good cytoprotection at concentrations approaching 100 nM.

[1] = system: PARP cleavage in Jurkat cells; assay: Effect of Z-VD-fmk on PARP cleavage in antiFas-treated Jurkat cells (Example 24); type: cell-based, human
Description: Poly(ADP)ribose polymerase (PARP) was one of the first caspase-3 substrates identified and the cleavage of PARP is still considered to be a near-universal marker for caspase-3 activation and caspase-mediated apoptosis. The ability of an anti-apoptotic compound to block PARP cleavage is therefore a useful indicator of its ability to inhibit apoptosis. The potency of Z-VD-fmk in a PARP cleavage assay was tested using antiFas-treated Jurkat cells. 2×10^6 Jurkat cells were seeded in each well of a 6-well dish and pre-incubated with test compounds for 30 minutes. The cells were then challenged with 500 ng/mL of an agonistic antiFas antibody or PBS for 4 hours. The cells were then harvested, pelleted gently, washed two times with PBS and lysed in RIPA buffer. Aliquots of the lysate were analyzed by SDS-PAGE and the proteins were transferred to PVDF membranes for Western blotting. The primary antibody was a polyclonal antiPARP serum which cross-reacts with both full-length PARP and the caspase-3-generated cleavage product.

COC(=O)CC[C@H](NC(=O)[C@H](CC(=O)OC)NC(=O)OCc1ccccc1)C(=O)N[C@H](C(=O)N[C@@H](CC(=O)OC)C(=O)CF)C(C)C [Z-DEVD-fmk]
cytoprotection against TNF-α-induced cell death (HeLa cells; below 50 μM (data not shown)): very ineffective

COC(=O)C[C@H](NC(=O)[C@H](C)NC(=O)[C@@H](NC(=O)OCc1ccccc1)C(C)C)C(=O)CF [Z-VAD-fmk, reference compound] (Cbz-Val-Ala-Asp(OMe)-CH2F)
cytoprotection against TNF-α-induced cell death (HeLa cells; below 1 μM (data not shown)): loses much of its cytoprotective properties | inhibition of PARP cleavage ([1]; 500 nM, antiFas-treated Jurkat cells): much less effective | inhibition of PARP cleavage ([1]; 5 μM, antiFas-treated Jurkat cells (data not shown)): effective inhibitor

CC(=O)N[C@@H](CC(=O)O)C(=O)N[C@@H](CCC(=O)O)C(=O)N[C@H](C(=O)N[C@H](C=O)CC(=O)O)C(C)C [Ac-DEVD-CHO]
cytoprotection against TNF-α-induced cell death (HeLa cells; below 50 μM (data not shown)): very ineffective

From patent US6949516B2, “Dipeptide apoptosis inhibitors and the use thereof” (Cytovia, Inc., priority 1997, dated 2005)
